Patent EP0336976A1, “PHARMACEUTICAL PREPARATION FOR CURING MULTIPLE SCLEROSIS AND LATERAL A[…]” (VSESOJUZNY KARDIOLOGICHESKY NAUCHNY TSENTR AKADEMII …, priority 1987, dated 1989)
Where a SMILES comes first, the peptide text is derived from it. [ ]: non-standard residue; d: D form.

Columns and labels:
[1] = test system: Patienten mit zerebrospinaler Form der multiplen Sklerose; experiment: Clinical trial in multiple sclerosis patients: neurological status scored in points (Kurtzke scale: neurological deficit and progression/disability scale), on top of basic therapy; assay type: in vivo, Menschen
Method: Das erfindungsgemässe Präparat für die Behandlung der multiplen Sklerose und der myotrophischen Lateralsklerose wurde in einer Klinik an Menschen erprobt.
Bei der multiplen Sklerose erfolgte die Behandlung mit dem angemeldeten Präparat unter Anwendung der Basistherapie, die die Vitamine der B-Gruppe, Glutaminsäure, Nikotinsäure, Zerebrolysin, Midokalm, und Essentiale einschliesst. Das erfindungsgemässe Präparat wurde den Patienten intramuskulär zu je I bis 5 mg des Wirkstoffes, der in I ml einer physiologischen Lösung aufgelöst wird, zweimal pro Tag innerhalb von 5 Tagen eingeführt.
Bei der Behandlung der multiplen Sklerose wurde die Wirkung des erfindungsgemässen Präparates mit der Wirkung von T-Aktivin verglichen, das unter Anwendung der gleichen wie bei der Behandlung mit dem angemeldeten Präparat Basistherapie eingeführt wurde. Das T-Aktivin führte man den Patienten intramuskulär einmal pro Tag zu je I ml I,0%iger Lösung innerhalb von 5 Tagen ein. Nach einer 7-tägigen Unterbrechung führte man das T-Aktivin in der gleichen dosis während 2 Tage ein.
(§1) Bei der Behandlung der multiplen Sklerose mit dem erfindungsgemässen Präparat und mit T-Aktivin verwendete man neben einer klinischen Analyse der neurologischen Symptome auch eine Methode der Registrierung von kurzlatenten erzeugten Hörpotentialen auf die akustische Stimulation. Die Dynamik der neurologischen Symptome bewertete man in Punkten nach der Kurzkschen Skale. Man führt die Analyse der Punkten-Summe nach der Skale des neurologischen Defizits durch sowie nach der Skale der Invalidisierung (sich verschlimmernde Entwicklung) unter Berücksichtigung der sozialen Adaptation des jeweiligen Patienten durch. Bei der Untersuchung der kurzlatenten erzeugten Hörpotentiale erfolgte die Summierung von 3000 Antworten und es wurden 7 Komponenten registriert, die den funktionellen Zustand folgender Pegel eines Höranalysators widerspiegeln: I - Schneke des Hörnervs, II -Kerne des Cochlearkomplexes, III- Nucleus der oberen Olive, IV - Nucleus der lateralen Schleife, V - Kerne der Höcker der Vierhügelplatte, VI - Kerne mittlerer Kniehöcker, VII - Kerne Auditus kortex. Alle Komponenten wurden nach den Werten der Zwischenpeakintervalle und den Relationen der Peakamplituden analysiert. Die Kontrollgruppe für die Untersuchung der kurzlatenten erzeugten Hörpotentiale bildeten I2 praktisch gesunde Personen.
(§2) Die Untersuchung der Patienten erfolgte vor der Verordnung der Präparate, in 5 und in I4 Tagen nach dem Beginn ihrer Verabreichung.
Hervorzuheben ist, dass bei den Patienten, denen das erfindungsgemässe Präparat und das T-Aktivin verordnet wurden, innnerhalb der letzten zwei Monate keine Dynamik im neurologischen Status nachgewiesen wurde. Das gab die Möglichkeit, die Verbesserung des Zustandes als Effekt von der Verordnung der Präparate zu betrachten.
Die Hauptgruppe der Patienten, die das erfindungsgemässe Präparat verabreicht bekamen, bestand aus 24 Personen (6 Männer und I8 Frauen) im alter von 20 bis 49 Jahren mit zerebrospinaler Form der multiplen Sklerose. Die Dauer der Erkrankung betrug von 2 bis 7 Jahren. Das erfindungsgemässe Präparat führe man den Patienten intramuskulär zu je I bis 2 mg zweimal am Tage innerhalb von 5 Tagen ein. Die Gruppe der Patienten, die das T-Aktivin bekam, bestand aus I4 Personen (6 Männer und 8 Frauen) im Alter von 23 bis 47 Jahren mit zerebrospinaler Form der multiplen Sklerose. Die Dauer der Erkrankung betrug von 2 bis 7 Jahren.
Das T-Aktivin führte man den patienten intramuskulär zu je I ml 0,I%iger Lösung einmal pro Tag innerhalb von 5 Tagen ein. […]
Bei der Einlieferung ins Krankenhaus wurden dem Patienten Vitamine BI und B₆, Glutaminsäure, innerhalb eines Monates Zerebrolysin verabreicht, durchgeführt wurden kurze Kuren mit Midokalm und Essentiale. […]

[2] = test system: Leitungsbahnen des Hirnstammes; experiment: Recording of short-latency auditory evoked potentials on acoustic stimulation in multiple sclerosis patients; assay type: in vivo, Menschen; conditions: MS patients
Source text: as §1, §2
Die Hauptgruppe der Patienten, die das erfindungsgemässe Präparat verabreicht bekamen, bestand aus 24 Personen (6 Männer und I8 Frauen) im alter von 20 bis 49 Jahren mit zerebrospinaler Form der multiplen Sklerose. Die Dauer der Erkrankung betrug von 2 bis 7 Jahren. Das erfindungsgemässe Präparat führe man den Patienten intramuskulär zu je I bis 2 mg zweimal am Tage innerhalb von 5 Tagen ein. Die Gruppe der Patienten, die das T-Aktivin bekam, bestand aus I4 Personen (6 Männer und 8 Frauen) im Alter von 23 bis 47 Jahren mit zerebrospinaler Form der multiplen Sklerose. Die Dauer der Erkrankung betrug von 2 bis 7 Jahren. […]

Toxicity (LD50) = conditions: in vivo; species and route not given; read-out: LD₅₀
[3] = test system: Patienten mit amyotrophischen Lateralsklerose; experiment: Clinical trial in amyotrophic lateral sclerosis patients: course of the disease, on top of conventional nonspecific therapy; assay type: in vivo, Menschen; conditions: ALS
[4] = patients with sekundärer Verschlimmerung, effect mainly am I5. Tag
[5] = patients: Leichter Grad, Am I5. Tag
[6] = patients: Remittierend, a) Verschlimmerung, Am I5. Tag
[7] = of 62 patients, listed as Präparat + Nichtspezifische Therapie
[8] = of 62 patients, pronounced plus moderate improvement

**Q.** For `CC(C)C[C@H](NC(=O)[C@H](Cc1ccccc1)NC(=O)CNC(=O)[C@@H](C)NC(=O)[C@@H](N)Cc1ccc(O)cc1)C(=O)N[C@@H](CCCNC(=N)N)C(=O)O` [erfindungsgemässe Präparat, Tyr-D-Ala-Gly-Phe-Leu-Arg] (H-Y[dA]GFLR-OH), which “Punkte nach der Skale der sich verschlimmernden Entwicklung” value ([1]; Beispiel I, Patientin K., 46 years, progredient MS, after 5 days of I mg twice daily, before treatment 6) is on record?
**A.** The value was 4.

**Q.** What about the “klinische Verbesserung, Anteil der Patienten” value ([1]; MS patients, whole group, after the course of treatment) of the same compound?
**A.** The value was 89%.

**Q.** And the “Verringerung der Summe der Punkte nach der Skale des neurologischen Defizits” value ([1]; patients with mittlerem Schweregrad, am 6. Tag)?
**A.** Its value is 4,3 Punkte.

**Q.** What about the “Senkung des Indexes nach der Skale der sich verschlimmernden Entwicklung” value [1, 4] of the same compound?
**A.** Its value is 2,4 Punkte.

**Q.** What about the “Verringerung der Summe der Punkte nach der Skale des neurologischen Defizits” value [1, 4] of the same compound?
**A.** The value was 6,3 Punkte.

**Q.** What about the “Gesamtpunktenzahl nach der Skala des neurologischen Defizits” value [1, 5] of the same compound?
**A.** The value was 8,6±0,9 Punkte.

**Q.** What about the “Index nach der Skala der sich verschlimmernden Entwicklung” value [1, 5] of the same compound?
**A.** The value was 2,8±0,5 Punkte.

**Q.** What about the “Index nach der Skala der sich verschlimmernden Entwicklung” value ([1]; patients: Leichter Grad, Vor der Behandlung (baseline)) of the same compound?
**A.** Its value is 3,7±0,4 Punkte.

**Q.** And the “Index nach der Skala der sich verschlimmernden Entwicklung” value ([1]; patients: Mittlerer Grad, Am 6. Tag)?
**A.** The value was 4,9±0,3 Punkte.

**Q.** What about the “Index nach der Skala der sich verschlimmernden Entwicklung” value ([1]; patients: Mittlerer Grad, Am I5. Tag) of the same compound?
**A.** Its value is 4,4±0,6 Punkte.

**Q.** What about the “Index nach der Skala der sich verschlimmernden Entwicklung” value ([1]; patients: Remittierend, a) Verschlimmerung, Am 6. Tag) of the same compound?
**A.** The value was 3 Punkte.

**Q.** What about the “Gesamtpunktenzahl nach der Skala des neurologischen Defizits” value [1, 6] of the same compound?
**A.** Its value is 5 Punkte.

**Q.** What about the “Index nach der Skala der sich verschlimmernden Entwicklung” value [1, 6] of the same compound?
**A.** The value was 2 Punkte.

**Q.** And the “Index nach der Skala der sich verschlimmernden Entwicklung” value ([1]; patients: Remittierend, a) Verschlimmerung, Vor der Behandlung (baseline))?
**A.** Its value is 5 Punkte.

**Q.** What about the “Index nach der Skala der sich verschlimmernden Entwicklung” value ([1]; patients: Remittierend, b) Remission, Am 6. Tag) of the same compound?
**A.** Its value is 3,3±0,5 Punkte.

**Q.** What about the “Index nach der Skala der sich verschlimmernden Entwicklung” value ([1]; patients: Remittierend, b) Remission, Am I5. Tag) of the same compound?
**A.** Its value is 3,4±0,5 Punkte.

**Q.** What about the “Index nach der Skala der sich verschlimmernden Entwicklung” value ([1]; patients: Remittierend, b) Remission, Vor der Behandlung (baseline)) of the same compound?
**A.** The value was 4,3±0,8 Punkte.

**Q.** And the “Index nach der Skala der sich verschlimmernden Entwicklung” value ([1]; patients: Remittierend, c) sekundäre Verschlimmerung, Am 6. Tag)?
**A.** Its value is 4,8±2,0 Punkte.

**Q.** And the “Index nach der Skala der sich verschlimmernden Entwicklung” value ([1]; patients: Remittierend, c) sekundäre Verschlimmerung, Am I5. Tag)?
**A.** Its value is 3,5±0,4 Punkte.

**Q.** What about the “Verringerung des Index nach der Skale der Weiterentwicklung der Krankheit” value ([1]; single patient in acute state of MS, zum I5. Tag) of the same compound?
**A.** Its value is 3 Punkte.

**Q.** What about the “Verringerung der Summe der Punkte nach der Skale des neurologischen Defizits” value ([1]; whole group, in 5 Tagen nach dem Beginn der Behandlung) of the same compound?
**A.** Its value is 2,9 Punkte.

**Q.** And the “Verringerung der Summe der Punkte nach der Skale des neurologischen Defizits” value ([1]; whole group, in I4 Tagen nach dem Beginn der Behandlung)?
**A.** The value was 3,8 Punkte.

**Q.** What about the “Differenzen der Latenzwerte III Peak-I Peak” value ([2]; Am 6. Tag) of the same compound?
**A.** Its value is 2,22±0,05.

**Q.** What about the “Differenzen der Latenzwerte III Peak-I Peak” value ([2]; Am I5. Tag) of the same compound?
**A.** The value was 2,20±0,06.

**Q.** What about the “Verhältnis der Amplituden V Peak - I Peak” value ([2]; Am I5. Tag) of the same compound?
**A.** Its value is 0,88±0,23.

**Q.** And the LD50 (Toxicity (LD50))?
**A.** The LD50 was 520 mg/kg.

**Q.** What about the “Verbesserung Ausgeprägt, number of patients” value ([3]; of 62 patients) of the same compound?
**A.** The value was 8.

**Q.** What about the “Verbesserung Mässig, number of patients” value ([3]; of 62 patients) of the same compound?
**A.** The value was 16.

**Q.** What about the “Verbesserung Mässig, share of patients” value ([3]; of 62 patients) of the same compound?
**A.** The value was 26%.

**Q.** What about the “keine Anzeichen einer sich verschlimmernden Entwicklung (stabiler Zustand oder Verbesserung), share of patients” value ([3]; of 62 patients) of the same compound?
**A.** The value was 84%.

**Q.** And the “Sich verschlimmernde Entwicklung, number of patients” value [3, 7]?
**A.** The value was 10.

**Q.** What about the “Sich verschlimmernde Entwicklung, share of patients” value [3, 7] of the same compound?
**A.** Its value is 16%.

**Q.** And the “Verbesserung Ausgeprägt, share of patients” value [3, 7]?
**A.** The value was 13%.

**Q.** And the “Verbesserung des Zustandes, number of patients” value [3, 8]?
**A.** Its value is 24 Personen.

**Q.** What about the “Verbesserung des Zustandes, share of patients” value [3, 8] of the same compound?
**A.** The value was 39%.

**Q.** What about the “Fehlen der Dynamik, number of patients” value ([3]; of 62 patients, stable state) of the same compound?
**A.** Its value is 28.

**Q.** And the “Fehlen der Dynamik, share of patients” value ([3]; of 62 patients, stable state)?
**A.** Its value is 45%.

**Q.** And the “keine Anzeichen einer sich verschlimmernden Entwicklung, number of patients” value ([3]; of 62 patients, stable state or improvement)?
**A.** Its value is 52 Personen.

**Q.** And the “sich verschlimmernde Entwicklung seltener im Vergleich zur Kontrollgruppe” value ([3]; preparation plus conventional therapy vs conventional therapy alone)?
**A.** The value was 4,8 fache.

**Q.** And the “Parese in den Füssen” value ([3]; Beispiel 3, Patient, two 2-week courses of I mg i.m. twice daily, at admission 2 Punkte)?
**A.** The value was 0 Punkte.

**Q.** What about the “Paresegrad in proximalen Abschnitten von Beinen und Armen” value ([3]; Beispiel 4, Patient E., 4I years, two 2-week courses of 2 mg i.m. twice daily) of the same compound?
**A.** Its value is 0 Punkte.

**Q.** And the “Parese der Extremitäten” value ([3]; Beispiel 5, Patient M., second stay, two 2-week courses of I mg i.m. twice daily)?
**A.** The value was 0 Punkte.
